Test [1] has as its target V600E-mutated B-RAF (Homo sapiens, UniProt P15056, V600E). The experiment in a line: In vitro assay for inhibition of mutant B-RAF kinase (recombinant V600E-mutated B-RAF, MEK (K97R) substrate). Type of test: biochemical. As to conditions: 10 nM recombinant V600E-mutated B-RAF. Here is the method:
The ability of compounds described herein to inhibit RAF kinase activity were determined from biochemical kinase inhibition assays using recombinant RAF proteins as known in the art.
Solutions of varying concentrations of test compounds or vehicle were added to 10 nM recombinant V600E-mutated B-RAF proteins incubated in the presence of different concentrations of ATP and […] (K97R) as substrate, as previously described (Wilhelm, S. M., et al., Cancer Res., 64: 7099-7109, 2004; Mason, C. S., et al.; EMBO J. 18: 2137-2.148, 1999; Marais, R., et al., J. Biol. Chem., 272: 4378-4383, 1997). At least triplicate determinations for each individual test compound concentration were made and data plotted as mean±standard deviation relative to the control vehicle.

The subject of test [2] is A375 cells (V600E activated B-RAF). The experiment in a line: In vitro tumor cell growth inhibition, MTT, 72 hours. Type of test: cell-based. The settings on record: Homo sapiens, A-375, 72 hours incubation. Here is the method:
Briefly, growth inhibition of cells containing V600E activated B-RAF (A375, Colo205) versus cell lines with wild-type B-RAF (A431) were measured under anchorage-dependent conditions using MTT (3-(4,5-dimethylthiazol-2-yl)-2,5-diphenyltetrazolium bromide), following 72 hours incubation with either compound or vehicle, as previously described (Haass, N. K., et al., Clinical Cancer Res., 14: 230-239, 2008): Cell lines are obtained from the American Type Tissue Culture Collection (Maryland, USA) and cultured in media containing heat-inactivated 10% fetal bovine serum. Cell cultures were also maintained in 10 U/mL, penicillin, 100 μg/mL streptomycin and 2 mM glutamine. At least triplicate determinations for each individual test compound concentration were made and data plotted as mean±standard deviation relative to the control vehicle.

V600E-mutated B-RAF, sequence (P15056 whole entry V600E): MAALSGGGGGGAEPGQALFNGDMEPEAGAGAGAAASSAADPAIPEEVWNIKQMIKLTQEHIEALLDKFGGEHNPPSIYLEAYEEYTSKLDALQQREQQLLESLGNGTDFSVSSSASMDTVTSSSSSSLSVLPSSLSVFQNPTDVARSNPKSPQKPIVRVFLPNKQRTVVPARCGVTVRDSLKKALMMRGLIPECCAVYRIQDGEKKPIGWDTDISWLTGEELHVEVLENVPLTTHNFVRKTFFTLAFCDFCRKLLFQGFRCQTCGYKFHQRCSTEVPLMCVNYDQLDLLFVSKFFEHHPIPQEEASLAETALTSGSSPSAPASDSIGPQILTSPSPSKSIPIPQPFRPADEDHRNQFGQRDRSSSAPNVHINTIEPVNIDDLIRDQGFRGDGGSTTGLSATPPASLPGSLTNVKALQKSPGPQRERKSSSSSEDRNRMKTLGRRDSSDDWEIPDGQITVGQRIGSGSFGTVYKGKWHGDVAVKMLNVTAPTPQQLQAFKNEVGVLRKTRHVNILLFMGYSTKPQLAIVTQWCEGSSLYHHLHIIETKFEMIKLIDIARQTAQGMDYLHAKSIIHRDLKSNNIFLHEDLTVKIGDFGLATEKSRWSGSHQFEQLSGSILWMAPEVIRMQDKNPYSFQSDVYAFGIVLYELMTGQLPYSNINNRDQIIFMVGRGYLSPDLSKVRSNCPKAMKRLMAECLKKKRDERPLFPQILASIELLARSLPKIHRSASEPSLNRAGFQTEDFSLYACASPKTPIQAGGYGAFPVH

For orientation: IC50 means the concentration needed to halve the response being measured. Regarding `Cc1nc(-c2ccncc2)c(-c2cccc(NC(=O)Nc3ccc(Cl)cc3)c2)s1` [Example 3, 1-(4-chlorophenyl)-3-(3-(2-methyl-4-(pyridin-4-yl)thiazol-5-yl)phenyl)urea], the results for the 50% inhibitory concentration (IC50) in test [1] and in test [2] were at most 0.1 µM and 1 to 10 µM, respectively.
Taken in the same sequence, the figures for `Cc1nc(-c2ccncc2)c(-c2cccc(NC(=O)Nc3ccc(C(F)(F)F)cc3)c2)s1` [Example 9, 1-(3-(2-methyl-4-(pyridin-4-yl)thiazol-5-yl)phenyl)-3-(4-(trifluoromethyl)phenyl)urea] were at most 0.1 µM and 0.1 to 1 µM.
For `Cc1nc(-c2ccncc2)c(-c2ccc(F)c(NC(=O)Nc3cccc(Cl)c3)c2)s1` [Example 13, 1-(3-chlorophenyl)-3-(2-fluoro-5-(2-methyl-4-(pyridin-4-yl)thiazol-5-yl)phenyl)urea] the same measures were at most 0.1 µM and 1 to 10 µM.
Taken in the same sequence, the figures for `Cc1nc(-c2ccncc2)c(-c2ccc(F)c(NC(=O)Nc3ccc(C(F)(F)F)cc3)c2)s1` [Example 14, 1-(2-fluoro-5-(2-methyl-4-(pyridin-4-yl)thiazol-5-yl)phenyl)-3-(4-(trifluoromethyl)phenyl)urea] were at most 0.1 µM and 1 to 10 µM.
As for `Cc1nc(-c2ccncc2)c(-c2cccc(NC(=O)Nc3ccc(C(F)(F)F)cc3)c2F)s1` [Example 15, 1-(2-fluoro-3-(2-methyl-4-(pyridin-4-yl)thiazol-5-yl)phenyl)-3-(4-(trifluoromethyl)phenyl)urea], the figures for the 50% inhibitory concentration (IC50) in test [1] and in test [2] were 0.1 to 1 µM and 1 to 10 µM, respectively.
Taken in the same sequence, the figures for `Cc1nc(-c2ccncc2)c(-c2ccc(F)c(NC(=O)Nc3cccc(C(F)(F)F)c3)c2)s1` [Example 16, 1-(2-fluoro-5-(2-methyl-4-(pyridin-4-yl)thiazol-5-yl)phenyl)-3-(3-(trifluoromethyl)phenyl)urea] were at most 0.1 µM and over 10 µM.
For `Cc1nc(-c2ccncc2)c(-c2cccc(NC(=O)Nc3ccc(S(C)(=O)=O)cc3)c2)s1` [Example 17, 1-(3-(2-methyl-4-(pyridin-4-yl)thiazol-5-yl)phenyl)-3-(4-(methylsulfonyl)phenyl)urea] the same measures were at most 0.1 µM and over 10 µM.
For `Cc1ccc(NC(=O)Nc2cccc(-c3sc(C)nc3-c3ccnc(N)c3)c2)cc1` [Example 20, 1-(3-(4-(2-aminopyridin-4-yl)-2-methylthiazol-5-yl)phenyl)-3-p-tolylurea] the same measures were at most 0.1 µM and 1 to 10 µM.
For `Cc1nc(-c2ccnc(N)c2)c(-c2cccc(NC(=O)Nc3ccc(Cl)cc3)c2)s1` [Example 21, 1-(3-(4-(2-aminopyridin-4-yl)-2-methylthiazol-5-yl)phenyl)-3-(4-chlorophenyl)urea], the values for the IC50 in test [1] and in test [2] were at most 0.1 µM and 1 to 10 µM, respectively.
Taken in the same sequence, the figures for `Cc1nc(-c2ccnc(N)c2)c(-c2ccc(F)c(NC(=O)Nc3ccc(Cl)cc3)c2)s1` [Example 22, 1-(5-(4-(2-aminopyridin-4-yl)-2-methylthiazol-5-yl)-2-fluorophenyl)-3-(4-chlorophenyl)urea] were at most 0.1 µM and 1 to 10 µM.
Taken in the same sequence, the figures for `Cc1nc(-c2ccnc(N)c2)c(-c2cccc(NC(=O)Nc3ccc(C(F)(F)F)cc3)c2F)s1` [Example 24, 1-(3-(4-(2-aminopyridin-4-yl)-2-methylthiazol-5-yl)-2-fluorophenyl)-3-(4-(trifluoromethyl)phenyl)urea] were 0.1 to 1 µM and 0.1 to 1 µM.
On to `Cc1nc(-c2ccnc(N)c2)c(-c2cc(NC(=O)Nc3ccc(C(F)(F)F)cc3)c(F)cc2F)s1` [Example 25, 1-(5-(4-(2-aminopyridin-4-yl)-2-methylthiazol-5-yl)-2,4-difluorophenyl)-3-(4-(trifluoromethyl)phenyl)urea], for which the IC50 in test [1] was at most 0.1 µM; in test [2], 1 to 10 µM.
Take `Cc1nc(-c2ccnc(N)c2)c(-c2cccc(NC(=O)Nc3ccc(C(F)(F)F)cc3)c2)s1` [Example 26, 1-(3-(4-(2-aminopyridin-4-yl)-2-methylthiazol-5-yl)phenyl)-3-(4-(trifluoromethyl)phenyl)urea]: the half-maximal inhibitory concentration (IC50) in test [1] was at most 0.1 µM; in test [2] it was over 10 µM.
For `O=C(Nc1ccc(Cl)cc1)Nc1cccc(-c2sc(N3CCOCC3)nc2-c2ccncc2)c1` [Example 33, 1-(4-chlorophenyl)-3-(3-(2-morpholino-4-(pyridin-4-yl)thiazol-5-yl)phenyl)urea], the IC50 is at most 0.1 µM in test [1] and 1 to 10 µM in test [2].
For `O=C(Nc1ccc(Cl)cc1)Nc1cccc(-c2sc(NCCN3CCOCC3)nc2-c2ccncc2)c1` [Example 34, 1-(4-chlorophenyl)-3-(3-(2-(2-morpholinoethylamino)-4-(pyridin-4-yl)thiazol-5-yl)phenyl)urea] the same measures were at most 0.1 µM and 1 to 10 µM.
For `O=C(Nc1ccc(C(F)(F)F)cc1)Nc1cc(-c2sc(NCCN3CCOCC3)nc2-c2ccncc2)ccc1F` [Example 35, 1-(2-fluoro-5-(2-(2-morpholinoethylamino)-4-(pyridin-4-yl)thiazol-5-yl)phenyl)-3-(4-(trifluoromethyl)phenyl)urea] the same measures were at most 0.1 µM and 0.1 to 1 µM.
For `O=C(Nc1ccc(C(F)(F)F)cc1)Nc1cccc(-c2sc(NCCN3CCOCC3)nc2-c2ccncc2)c1` [Example 37, 1-(3-(2-(2-morpholinoethylamino)-4-(pyridin-4-yl)thiazol-5-yl)phenyl)-3-(4-(trifluoromethyl)phenyl)urea] the same measures were at most 0.1 µM and 1 to 10 µM.
As to `Cc1nc(-c2ccncc2)c(-c2cccc(NS(=O)(=O)c3cc(F)ccc3F)c2)s1` [Example 41, 2,5-Difluoro-N-[3-(2-methyl-4-pyridin-4-yl-thiazol-5-yl)-phenyl]-benzenesulfonamide], the IC50 in test [1] was at most 0.1 µM; in test [2], 1 to 10 µM.
Regarding `Cc1ccc(NC(=O)Cc2cccc(-c3sc(C)nc3-c3ccncc3)c2)cc1` [Example 47, 2-(3-(2-methyl-4-(pyridin-4-yl)thiazol-5-yl)phenyl)-N-p-tolylacetamide], the half-maximal inhibitory concentration (IC50) in test [1] was at most 0.1 µM; in test [2], over 10 µM.
Taken in the same sequence, the figures for `CCn1cc(-c2ccc(F)c(NC(=O)Nc3ccc(Cl)cc3)c2)c(-c2ccncc2)n1` [Example 48, 1-(4-chlorophenyl)-3-(5-(1-ethyl-3-(pyridin-4-yl)-1H-pyrazol-4-yl)-2-fluorophenyl)urea] were at most 0.1 µM and 1 to 10 µM.
As for `CCn1cc(-c2cccc(NC(=O)Nc3ccc(Cl)cc3)c2F)c(-c2ccncc2)n1` [Example 49, 1-(4-chlorophenyl)-3-(3-(1-ethyl-3-(pyridin-4-yl)-1H-pyrazol-4-yl)-2-fluorophenyl)urea], the IC50 in test [1] is at most 0.1 µM; in test [2], 0.1 to 1 µM.
For `CCn1cc(-c2cccc(NC(=O)Nc3ccc(S(C)(=O)=O)cc3)c2)c(-c2ccncc2)n1` [Example 51, 1-(3-(1-ethyl-3-(pyridin-4-yl)-1H-pyrazol-4-yl)phenyl)-3-(4-(methylsulfonyl)phenyl)urea] the same measures were at most 0.1 µM and 1 to 10 µM.
Taken in the same sequence, the figures for `CCn1cc(-c2cccc(N3CCN(c4ccc(C(F)(F)F)cc4)C3=O)c2)c(-c2ccncc2)n1` [Example 53, 1-(3-(1-ethyl-3-(pyridin-4-yl)-1H-pyrazol-4-yl)phenyl)-3-(4-(trifluoromethyl)phenyl)imidazolidin-2-one] were at most 0.1 µM and 1 to 10 µM.

(Values after US20140221374A1, “RAF KINASE INHIBITORS” (Ruga Corporation, priority 2011, published 2014).)
